We go through 7 cell lines from the supplement of paper PMC10307832.

What all share (assay): relative viability (nuclei count vs DMSO), 5 days (fraction); higher = more cells survive
Compound in experiment [1]: CC(=O)Nc1cccc(-n2c(=O)n(C3CC3)c(=O)c3c(Nc4ccc(I)cc4F)n(C)c(=O)c(C)c32)c1 [Trametinib] + COc1cccc2cc(-c3nc([C@H]4CC[C@H](C(=O)O)CC4)n4ncnc(N)c34)[nH]c12 [OSI-027] (partner 0.5 µM)
The method, boiled down: (§1)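 Lung cancer cell lines, seeded in 1536-well plates, were treated the following day by pin tool with a single drug or with five library-drug doses (not always all listed) in √10 steps on top of a fixed anchor-drug dose. Cells were fixed and nuclei stained in one step after 5 days, and nuclei were counted. Relative viability is the nuclei count for treated wells divided by that for vehicle wells, reported as medians of duplicate plates.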

Compound in experiment [2]: CC(=O)Nc1cccc(-n2c(=O)n(C3CC3)c(=O)c3c(Nc4ccc(I)cc4F)n(C)c(=O)c(C)c32)c1 [Trametinib] + O=C(CCCCCCC(=O)Nc1ccccc1)NO [Vorinostat] (partner 1 µM)
The method, boiled down: as §1

Compound in experiment [3]: CN1C=C(C2=CC=CC=C21)/C=C\3/C4=C(C=CC=N4)NC3=O + CS(=O)(=O)N1CCN(Cc2cc3nc(-c4cccc5[nH]ncc45)nc(N4CCOCC4)c3s2)CC1 [Pictilisib] (partner 1 µM)
Summed up:
as §1

Compound in experiment [4]: CN1C=C(C2=CC=CC=C21)/C=C\3/C4=C(C=CC=N4)NC3=O + C[C@@H](Oc1cc(-c2cnn(C3CCNCC3)c2)cnc1N)c1c(Cl)ccc(F)c1Cl [Crizotinib] (partner 1 µM)
Summed up: as §1

On to NCI-H3122, for which the relative viability in experiment [1] (first compound 0.0025 µM) was determined as 0.555; in experiment [1] (first compound 0.007906 µM), 0.352; in experiment [1] (first compound 0.025 µM) it was 0.211; in experiment [1] (first compound 0.07906 µM), 0.169; in experiment [1] (first compound 0.25 µM), 0.159; in experiment [2] (first compound 0.0025 µM), 0.978. In addition, the relative viability was 0.678 in experiment [2] (first compound 0.007906 µM); 0.204 in experiment [2] (first compound 0.025 µM); 0.361 in experiment [2] (first compound 0.07906 µM); 0.518 in experiment [2] (first compound 0.25 µM); 0.597 in experiment [3] (first compound 0.02 µM); 0.541 in experiment [3] (first compound 0.06325 µM). For the same cell line, the relative viability was found to be 0.5 in experiment [3] (first compound 0.2 µM); 0.563 in experiment [3] (first compound 0.6325 µM); 0.632 in experiment [3] (first compound 2 µM); 0.226 in experiment [4] (first compound 0.02 µM); 0.231 in experiment [4] (first compound 0.06325 µM); 0.275 in experiment [4] (first compound 0.2 µM). Also, the relative viability was 0.29 in experiment [4] (first compound 0.6325 µM) and 0.28 in experiment [4] (first compound 2 µM).
On to LCLC-97TM1, for which the relative viability is 0.346 in experiment [1] (first compound 0.0025 µM); 0.379 in experiment [1] (first compound 0.007906 µM); 0.268 in experiment [1] (first compound 0.025 µM); 0.272 in experiment [1] (first compound 0.07906 µM); 0.271 in experiment [1] (first compound 0.25 µM); 0.722 in experiment [2] (first compound 0.0025 µM). Besides, the relative viability in experiment [2] (first compound 0.007906 µM) was determined as 0.701; in experiment [2] (first compound 0.025 µM), 0.435; in experiment [2] (first compound 0.07906 µM) it was 0.225; in experiment [2] (first compound 0.25 µM) it was 0.0816; in experiment [3] (first compound 0.02 µM), 0.159; in experiment [3] (first compound 0.6325 µM), 0.216. Besides, the relative viability was 0.131 in experiment [3] (first compound 2 µM), 0.232 in experiment [4] (first compound 0.02 µM), 0.331 in experiment [4] (first compound 0.6325 µM) and 0.419 in experiment [4] (first compound 2 µM).
On to NCI-H2228, for which the relative viability in experiment [1] (first compound 0.0025 µM) is 0.498; in experiment [1] (first compound 0.007906 µM), 0.427; in experiment [1] (first compound 0.025 µM), 0.222; in experiment [1] (first compound 0.07906 µM), 0.237; in experiment [1] (first compound 0.25 µM) it was 0.192; in experiment [2] (first compound 0.0025 µM), 0.673. The relative viability in experiment [2] (first compound 0.007906 µM) stood at 0.87; in experiment [2] (first compound 0.025 µM) it was 0.766; in experiment [2] (first compound 0.07906 µM), 0.426; in experiment [2] (first compound 0.25 µM) it was 0.309; in experiment [3] (first compound 0.02 µM) it was 0.378; in experiment [3] (first compound 0.06325 µM), 0.371. Moreover, the relative viability in experiment [3] (first compound 0.6325 µM) worked out at 0.327; in experiment [3] (first compound 2 µM) it was 0.27; in experiment [4] (first compound 0.02 µM), 0.386; in experiment [4] (first compound 0.06325 µM), 0.489; in experiment [4] (first compound 0.6325 µM) it was 0.373; in experiment [4] (first compound 2 µM), 0.425.
Take COR-L23: the relative viability in experiment [1] (first compound 0.0025 µM) worked out at 0.686; in experiment [1] (first compound 0.007906 µM), 0.7; in experiment [1] (first compound 0.025 µM), 0.364; in experiment [1] (first compound 0.07906 µM), 0.455; in experiment [1] (first compound 0.25 µM), 0.249; in experiment [2] (first compound 0.0025 µM), 0.463. Also, the relative viability in experiment [2] (first compound 0.007906 µM) was 0.465; in experiment [2] (first compound 0.025 µM) it was 0.529; in experiment [2] (first compound 0.07906 µM) it was 0.421; in experiment [2] (first compound 0.25 µM), 0.312; in experiment [3] (first compound 0.02 µM), 0.721; in experiment [3] (first compound 0.06325 µM), 0.707. Further, the relative viability in experiment [3] (first compound 0.2 µM) was determined as 0.781; in experiment [3] (first compound 0.6325 µM), 0.737; in experiment [3] (first compound 2 µM), 0.887; in experiment [4] (first compound 0.02 µM), 0.631; in experiment [4] (first compound 0.06325 µM), 0.576; in experiment [4] (first compound 0.2 µM) it was 0.752. For the same cell line, the relative viability was 0.622 in experiment [4] (first compound 0.6325 µM) and 0.671 in experiment [4] (first compound 2 µM).
For EMC-BAC-2, the relative viability amounted to 0.452 in experiment [1] (first compound 0.0025 µM); 0.488 in experiment [1] (first compound 0.007906 µM); 0.381 in experiment [1] (first compound 0.025 µM); 0.511 in experiment [1] (first compound 0.07906 µM); 0.359 in experiment [1] (first compound 0.25 µM); 0.742 in experiment [2] (first compound 0.0025 µM). Further, the relative viability in experiment [2] (first compound 0.007906 µM) amounted to 0.602; in experiment [2] (first compound 0.025 µM) it was 0.448; in experiment [2] (first compound 0.25 µM), 0.326; in experiment [3] (first compound 0.02 µM), 0.499; in experiment [3] (first compound 0.06325 µM) it was 0.521; in experiment [3] (first compound 0.2 µM), 0.524. For the same cell line, the relative viability in experiment [3] (first compound 0.6325 µM) came to 0.521; in experiment [3] (first compound 2 µM), 0.554; in experiment [4] (first compound 0.02 µM) it was 0.644; in experiment [4] (first compound 0.06325 µM), 0.714; in experiment [4] (first compound 0.2 µM) it was 0.668; in experiment [4] (first compound 0.6325 µM), 0.757. Further, the relative viability in experiment [4] (first compound 2 µM) came out at 0.832.
Turning to NCI-H1944, the relative viability in experiment [1] (first compound 0.0025 µM) was determined as 0.359; in experiment [1] (first compound 0.007906 µM), 0.309; in experiment [1] (first compound 0.025 µM) it was 0.318; in experiment [1] (first compound 0.07906 µM), 0.279; in experiment [1] (first compound 0.25 µM) it was 0.23; in experiment [2] (first compound 0.0025 µM), 0.556. The relative viability is 0.387 in experiment [2] (first compound 0.007906 µM); 0.382 in experiment [2] (first compound 0.025 µM); 0.348 in experiment [2] (first compound 0.07906 µM); 0.28 in experiment [2] (first compound 0.25 µM); 0.323 in experiment [3] (first compound 0.02 µM); 0.326 in experiment [3] (first compound 0.06325 µM). In addition, the relative viability in experiment [3] (first compound 0.6325 µM) turned out to be 0.294; in experiment [3] (first compound 2 µM), 0.314; in experiment [4] (first compound 0.02 µM), 0.939; in experiment [4] (first compound 0.06325 µM) it was 0.995; in experiment [4] (first compound 0.6325 µM), 1.24; in experiment [4] (first compound 2 µM) it was 1.18.
Consider A-427, for which the relative viability in experiment [1] (first compound 0.0025 µM) came out at 0.373; in experiment [1] (first compound 0.007906 µM), 0.287; in experiment [1] (first compound 0.025 µM), 0.212; in experiment [1] (first compound 0.07906 µM), 0.242; in experiment [1] (first compound 0.25 µM), 0.143; in experiment [2] (first compound 0.0025 µM), 0.948. Moreover, the relative viability in experiment [2] (first compound 0.007906 µM) came to 0.896; in experiment [2] (first compound 0.025 µM), 0.723; in experiment [2] (first compound 0.07906 µM), 0.501; in experiment [2] (first compound 0.25 µM) it was 0.51; in experiment [3] (first compound 0.02 µM), 0.726; in experiment [3] (first compound 0.06325 µM) it was 0.707. For the same cell line, the relative viability in experiment [3] (first compound 0.6325 µM) was found to be 0.679; in experiment [3] (first compound 2 µM), 0.742; in experiment [4] (first compound 0.02 µM), 0.924; in experiment [4] (first compound 0.06325 µM), 0.775; in experiment [4] (first compound 0.6325 µM) it was 1; in experiment [4] (first compound 2 µM) it was 1.16.
